Patent publication US20160213647A1, “COMPOSITIONS AND METHODS FOR INHIBITING VIRAL INFECTION” (priority 2015, published 2016)
Like-named read-outs stand apart in the source and are kept apart here.

Columns and labels:
HIV-1 isolate 1022-48 = assay: microbe, parasite or virus in culture; details: Human immunodeficiency virus 1, PBMC
HIV-1 92HT599 = assay: microbe, parasite or virus in culture; details: Human immunodeficiency virus 1, PBMC
HIV-1 isolate A17 = assay: microbe, parasite or virus in culture; details: Human immunodeficiency virus 1, PBMC
in vitro [1] = details: human
HIV-1 91US001 = assay: microbe, parasite or virus in culture; details: Human immunodeficiency virus 1, PBMC
HIV-1 isolate 4736_4 = assay: microbe, parasite or virus in culture; details: Human immunodeficiency virus 1, PBMC
[2] = tested on: Peripheral Blood Mononuclear Cells (PBMCs); details: human
HIV-2 CDC 310319 = assay: microbe, parasite or virus in culture; details: Human immunodeficiency virus 2, PBMC
HIV-1 isolate MDR807 = assay: microbe, parasite or virus in culture; details: Human immunodeficiency virus 1, PBMC
in vitro [3] = details: human; remark: listed apart in the source
HIV-2 CBL20 H9 = assay: microbe, parasite or virus in culture; details: Human immunodeficiency virus 2, PBMC
HIV-1 isolate NL4-3 [4] = assay: microbe, parasite or virus in culture; details: Human immunodeficiency virus 1, NL43, PBMC
HIV-1 MDR 769 = assay: microbe, parasite or virus in culture; details: Human immunodeficiency virus 1, PBMC
HIV-1 isolate MDR769 = assay: microbe, parasite or virus in culture; details: Human immunodeficiency virus 1, PBMC
in vitro [5] = details: human; remark: listed apart in the source
A/Ca/07/09 (H1N1) = assay: microbe, parasite or virus in culture; type: cell-based; details: Influenza A virus, H1N1, HEK-293T
A/Udorn/72 (H3N2) = assay: microbe, parasite or virus in culture; type: cell-based; details: Influenza A virus, H3N2, HEK-293T
CHIKV 899 wild-type = assay: Chikungunya virus-induced cell death (CPE, MTS/PMS) assay in Vero A cells; details: Chikungunya virus, Vero, read-out: EC50 WT
HIV-1 isolate NL4-3 [6] = tested on: HIV-1 isolate NL4-3

Cc1cn([C@H]2C[C@H](N=[N+]=[N-])[C@@H](CO)O2)c(=O)[nH]c1=O [AZT, azidothymidine]
IC50 (HIV-1 isolate 1022-48): > 1000 nM | IC90 (HIV-1 isolate 1022-48): > 1000 nM | IC50 (HIV-1 92HT599): 11.9 nM | IC90 (HIV-1 isolate A17): 11.6 nM | IC90 (HIV-1 isolate A17; read-out: IC50): 27.4 nM | CC50 (in vitro [1]): > 1000 nM | IC50 (HIV-1 91US001): 17.4 nM | IC90 (HIV-1 isolate 4736_4): 2.57 nM | IC90 (HIV-1 isolate 4736_4; read-out: IC50): 20.6 nM | CC50 [2]: > 1000 nM | IC50 (HIV-2 CDC 310319): 5.73 nM | IC90 (HIV-1 isolate MDR807): 162 nM | IC90 (HIV-1 isolate MDR807; read-out: IC50): > 1000 nM | CC50 (in vitro [3]): > 1000 nM | IC50 (HIV-2 CBL20 H9): < 0.1 nM | IC90 (HIV-1 isolate NL4-3 [4]): 9.96 nM | IC90 (HIV-1 isolate NL4-3 [4]; read-out: IC50): 39.6 nM

CC(C)Nc1cccnc1N1CCN(C(=O)c2cc3cc(NS(C)(=O)=O)ccc3[nH]2)CC1 [Delavirdine]
IC50 (HIV-1 isolate A17): > 2000 nM | IC90 (HIV-1 isolate A17): > 2000 nM | CC50 (in vitro [3]): > 2000 nM | IC90 (HIV-1 isolate NL4-3 [4]): 30.6 nM | IC90 (HIV-1 isolate NL4-3 [4]; read-out: IC50): 57.6 nM

O=C1Nc2ccc(Cl)cc2[C@@](C#CC2CC2)(C(F)(F)F)O1 [Efavirenz]
CC50 (in vitro [1]): > 1000 nM | IC50 (HIV-1 MDR 769): 0.66 nM | CC50 [2]: > 1000 nM

COc1cc2c(cc1Cc1cccc(Cl)c1F)c(=O)c(C(=O)O)cn2[C@H](CO)C(C)C [Elvitegravir]
IC90 (HIV-1 isolate 4736_4): 81.9 nM | IC90 (HIV-1 isolate 4736_4; read-out: IC50): 251 nM | CC50 (in vitro [3]): > 1000 nM | IC90 (HIV-1 isolate NL4-3 [4]): 0.52 nM | IC90 (HIV-1 isolate NL4-3 [4]; read-out: IC50): 1.25 nM

Cc1cccc(C)c1OCC(=O)N[C@@H](Cc1ccccc1)[C@@H](O)C[C@H](Cc1ccccc1)NC(=O)[C@H](C(C)C)N1CCCNC1=O [Lopinavir]
CC50 at 7 days (in vitro [1]): > 1000 nM | IC50 (HIV-1 MDR 769): 827 nM | CC50 ([2]; 7 days): > 1000 nM

Cc1ccnc2c1NC(=O)c1cccnc1N2C1CC1 [Nevirapine]
IC90 (HIV-1 isolate 1022-48): 70.4 nM | IC90 (HIV-1 isolate 1022-48; read-out: IC50): 242 nM | IC50 (HIV-1 isolate A17): > 10000 nM | IC90 (HIV-1 isolate A17): > 10000 nM | CC50 (in vitro [3]): > 10000 nM | IC90 (HIV-1 isolate NL4-3 [4]): 75.3 nM | IC90 (HIV-1 isolate NL4-3 [4]; read-out: IC50): 227 nM

Cc1nnc(C(=O)NC(C)(C)c2nc(C(=O)NCc3ccc(F)cc3)c(O)c(=O)n2C)o1 [Raltegravir, raltegravir]
IC90 (HIV-1 isolate 4736_4): 74.5 nM | IC90 (HIV-1 isolate 4736_4; read-out: IC50): > 100 nM | IC90 (HIV-1 isolate MDR769): 3.64 nM | IC90 (HIV-1 isolate MDR769; read-out: IC50): 8.95 nM | IC90 (HIV-1 isolate MDR807): 0.46 nM | IC90 (HIV-1 isolate MDR807; read-out: IC50): 2.16 nM | CC50 (in vitro [3]): > 100 nM | IC90 (HIV-1 isolate NL4-3 [4]): 1.3 nM | IC90 (HIV-1 isolate NL4-3 [4]; read-out: IC50): 5.18 nM

NC(=O)c1ncn([C@@H]2O[C@H](CO)[C@@H](O)[C@H]2O)n1 [Ribavirin, reference compound]
CC50 (in vitro [5]): > 100000 nM | EC50 (A/Ca/07/09 (H1N1)): 12800 nM | EC50 (A/Udorn/72 (H3N2)): 5240 nM

CC(C)c1nc(CN(C)C(=O)N[C@H](C(=O)N[C@@H](Cc2ccccc2)C[C@H](O)[C@H](Cc2ccccc2)NC(=O)OCc2cncs2)C(C)C)cs1 [Ritonavir, ritonavir]
IC50 (HIV-1 isolate 1022-48): > 10000 nM | IC90 (HIV-1 isolate 1022-48): > 10000 nM | IC90 (HIV-1 isolate MDR807): 1280 nM | IC90 (HIV-1 isolate MDR807; read-out: IC50): 5940 nM | IC90 (HIV-1 isolate NL4-3 [4]): 45.5 nM | IC90 (HIV-1 isolate NL4-3 [4]; read-out: IC50): 92.3 nM

NC(=O)c1nc(F)c[nH]c1=O [T-705, favipiravir, reference compound]
EC50 (CHIKV 899 wild-type): 7400 nM

Enfuvirtide
IC50 (HIV-1 isolate NL4-3 [6]): 412 nM | IC90 (HIV-1 isolate NL4-3 [6]): 133 nM

enfuvirtide
CC50 (human PBMCs): > 2000 nM
